The text below walks through data of US9029391B2 (priority 2011, dated 2015).

In general, IC50 refers to the point on the concentration scale where inhibition reaches its midpoint.

Molecules are shown by their SMILES.

The test system of the assay is HIV. As to the kind of experiment: MT4 Assay (anti-HIV activity). Format: cell-based. Conditions: Human immunodeficiency virus 1, 96 h, read-out: HIV MT4 Assay IC50, HTLV-1 transformed cell line MT-4, cell titer glo, 10 point dose response curve. The protocol: Antiviral HIV activity and cytotoxicity values for compounds of the invention from Table 1 were measured in parallel in the HTLV-1 transformed cell line MT-4 based on the method previously described (Hazen et al., 2007, In vitro antiviral activity of the novel, tyrosyl-based human immunodeficiency virus (HIV) type 1 protease inhibitor brecanavir (GW640385) in combination with other antiretrovirals and against a panel of protease inhibitor-resistant HIV (Hazen et al., “In vitro antiviral activity of the novel, tyrosyl-based human immunodeficiency virus (HIV) type 1 protease inhibitor brecanavir (GW640385) in combination with other antiretrovirals and against a panel of protease inhibitor-resistant HIV”, Antimicrob. Agents Chemother. 2007, 51: 3147-3154; and Pauwels et al., “Sensitive and rapid assay on MT-4 cells for the detection of antiviral compounds against the AIDS virus”, J. of Virological Methods 1987, 16: 171-185).
Luciferase activity was measured 96 hours later by adding a cell titer glo (Promega, Madison, Wis.). Percent inhibition of cell protection data was plotted relative to no compound control. Under the same condition, cytotoxicity of the compounds was determined using cell titer glo (Promega, Madison, Wis.). IC50s were determined from a 10 point dose response curve using 3-4-fold serial dilution for each compound, which spans a concentration range >1000 fold.
`CCc1c(-c2c(C(OC(C)(C)C)C(=O)O)n(C)c(=O)c3ccccc23)ccc2c1CCCO2` (stereo not drawn) [Example 121, 2-(tert-butoxy)-2-[4-(5-ethyl-3,4-dihydro-2H-1-benzopyran-6-yl)-2-methyl-1-oxo-1,2-dihydroisoquinolin-3-yl]acetic acid]: the IC50 came to 0.94 µM.
The value for `Cc1c(-c2c(C(OC(C)(C)C)C(=O)O)n(C)c(=O)c3cc(F)ccc23)ccc2c1CCCO2` (stereo not drawn) [Example 75, 2-(tert-butoxy)-2-[7-fluoro-2-methyl-4-(5-methyl-3,4-dihydro-2H-1-benzopyran-6-yl)-1-oxo-1,2-dihydroisoquinolin-3-yl]acetic acid] was 0.39 µM; that for `Cc1c(-c2c([C@H](OC(C)(C)C)C(=O)O)n(C)c(=O)c3cc(-c4cn[nH]c4)ccc23)cc(F)c2c1CCCO2` (atropisomer, axis not shown; (M)) [Example 197, (2S)(M)-[(1,1-dimethylethyl)oxy][4-(8-fluoro-5-methyl-3,4-dihydro-2H-chromen-6-yl)-2-methyl-1-oxo-7-(1H-pyrazol-4-yl)-1,2-dihydro-3-isoquinolinyl]ethanoic acid] was 1.46 µM.
For the molecule `CC1CCOc2ccc(-c3c(C(OC(C)(C)C)C(=O)O)n(C)c(=O)c4ccccc34)cc21` (stereo not drawn) [Example 149, [(1,1-dimethylethyl)oxy][2-methyl-4-(4-methyl-3,4-dihydro-2H-chromen-6-yl)-1-oxo-1,2-dihydro-3-isoquinolinyl]acetic acid], the IC50 worked out at 1.17 µM.
With `Cn1c(C(OC(C)(C)C)C(=O)O)c(-c2ccc3c(c2)CCO3)c2ccccc2c1=O` (stereo not drawn) [Example 63, 2-(tert-butoxy)-2-[4-(2,3-dihydro-1-benzofuran-5-yl)-2-methyl-1-oxo-1,2-dihydroisoquinolin-3-yl]acetic acid] the figure was 1.69 µM; with `Cc1nc(COc2ccc3c(-c4cc(F)c5c(c4C)CCCO5)c([C@H](OC(C)(C)C)C(=O)O)n(C)c(=O)c3c2)c(C)o1` [Example 105, (2S)-2-(tert-butoxy)-2-{7-[(dimethyl-1,3-oxazol-4-yl)methoxy]-4-(8-fluoro-5-methyl-3,4-dihydro-2H-1-benzopyran-6-yl)-2-methyl-1-oxo-1,2-dihydroisoquinolin-3-yl}acetic acid], 0.1 µM; with `Cn1c(C(OC(C)(C)C)C(=O)O)c(-c2ccc3c(c2)OCO3)c2ccccc2c1=O` (stereo not drawn) [Example 51, 2-[4-(2H-1,3-benzodioxol-5-yl)-2-methyl-1-oxo-1,2-dihydroisoquinolin-3-yl]-2-(tert-butoxy)acetic acid], 5.3 µM.
For the molecule `Cc1ccc(-c2c(C(CC(C)C)C(=O)O)n(C)c(=O)c3ccccc23)c(C)c1` (stereo not drawn) [Example 217, 2-[4-(2,4-dimethylphenyl)-2-methyl-1-oxo-1,2-dihydro-3-isoquinolinyl]-4-methylpentanoic acid], the half-inhibitory concentration (IC50) amounted to 13.1 µM.
For the molecule `Cc1ccc2c(-c3ccc(C)c(C)c3)c(C(OC(C)(C)C)C(=O)O)n(C)c(=O)c2c1` (stereo not drawn) [Example 60, 2-(tert-butoxy)-2-[4-(3,4-dimethylphenyl)-2,7-dimethyl-1-oxo-1,2-dihydroisoquinolin-3-yl]acetic acid], the IC50 was 1.29 µM.
As for `Cc1c(-c2c([C@H](OC(C)(C)C)C(=O)O)n(C)c(=O)c3cc(N4CCCCC4)ccc23)cc(F)c2c1CCCO2` (atropisomer, axis not shown; (M)) [Example 166, (2S)(M)-[(1,1-dimethylethyl)oxy][4-(8-fluoro-5-methyl-3,4-dihydro-2H-chromen-6-yl)-2-methyl-1-oxo-7-(1-piperidinyl)-1,2-dihydro-3-isoquinolinyl]ethanoic acid], the IC50 was 0.02 µM.
As for `Cc1c(-c2c([C@H](OC(C)(C)C)C(=O)O)n(C)c(=O)c3cc(-c4ccccc4F)ccc23)cc(F)c2c1CCCO2` (atropisomer, axis not shown; (M)) [Example 211, (S)(M)-2-(tert-butoxy)-2-(4-(8-fluoro-5-methylchroman-6-yl)-7-(2-fluorophenyl)-2-methyl-1-oxo-1,2-dihydroisoquinolin-3-yl)acetic acid], the IC50 was determined as 0.02 µM.
With `COc1ccc2c(-c3ccc4c(c3C)CCCO4)c([C@H](OC(C)(C)C)C(=O)O)n(C)c(=O)c2c1` [Example 94, (2S)-2-(tert-butoxy)-2-[7-methoxy-2-methyl-4-(5-methyl-3,4-dihydro-2H-1-benzopyran-6-yl)-1-oxo-1,2-dihydroisoquinolin-3-yl]acetic acid] the figure was 0.02 µM; with `Cc1c(-c2c([C@H](OC(C)(C)C)C(=O)O)n(C)c(=O)c3cc(-c4cnn(CCC(C)C)c4)ccc23)cc(F)c2c1CCCO2` (atropisomer, axis not shown; (M)) [Example 201, (2S)(M)-[(1,1-dimethylethyl)oxy]{4-(8-fluoro-5-methyl-3,4-dihydro-2H-chromen-6-yl)-2-methyl-7-[1-(3-methylbutyl)-1H-pyrazol-4-yl]-1-oxo-1,2-dihydro-3-isoquinolinyl}ethanoic acid], 0.04 µM.
For the molecule `Cc1c(-c2c(C(OC(C)(C)C)C(=O)O)n(C)c(=O)c3cc(OC(F)F)ccc23)ccc2c1CCCO2` (stereo not drawn) [Example 114, 2-(tert-butoxy)-2-[7-(difluoromethoxy)-2-methyl-4-(5-methyl-3,4-dihydro-2H-1-benzopyran-6-yl)-1-oxo-1,2-dihydroisoquinolin-3-yl]acetic acid], the IC50 came to 0.42 µM.
The value for `Cn1c(C(OC(C)(C)C)C(=O)O)c(-c2ccc3ncccc3c2)c2ccccc2c1=O` (stereo not drawn) [Example 62, 2-(tert-butoxy)-2-[2-methyl-1-oxo-4-(quinolin-6-yl)-1,2-dihydroisoquinolin-3-yl]acetic acid] was 11.1 µM.
Consider `CCOc1ccc(-c2c(C(OC(C)(C)C)C(=O)O)n(C)c(=O)c3ccccc23)cc1` (stereo not drawn) [Example 42, 2-(tert-butoxy)-2-[4-(4-ethoxyphenyl)-2-methyl-1-oxo-1,2-dihydroisoquinolin-3-yl]acetic acid], for which the IC50 was determined as 33.3 µM.
With `Cc1cccnc1COc1ccc2c(-c3ccc4c(c3C)CCCO4)c(C(OC(C)(C)C)C(=O)O)n(C)c(=O)c2c1` (stereo not drawn) [Example 102, 2-(tert-butoxy)-2-[2-methyl-4-(5-methyl-3,4-dihydro-2H-1-benzopyran-6-yl)-7-[(3-methylpyridin-2-yl)methoxy]-1-oxo-1,2-dihydroisoquinolin-3-yl]acetic acid] the figure was 0.33 µM; with `Cc1c(-c2c(C(OC(C)(C)C)C(=O)O)n(C)c(=O)c3cc(OCc4ccccn4)ccc23)ccc2c1CCCO2` (stereo not drawn) [Example 129, 2-(tert-butoxy)-2-[2-methyl-4-(5-methyl-3,4-dihydro-2H-1-benzopyran-6-yl)-1-oxo-7-(pyridin-2-ylmethoxy)-1,2-dihydroisoquinolin-3-yl]acetic acid], 0.2 µM.
With `COc1ccc(-c2ccc3c(-c4cc(F)c5c(c4C)CCCO5)c([C@H](OC(C)(C)C)C(=O)O)n(C)c(=O)c3c2)cn1` (atropisomer, axis not shown; (M)) [Example 198, (2S)(M)-[(1,1-dimethylethyl)oxy]{4-(8-fluoro-5-methyl-3,4-dihydro-2H-chromen-6-yl)-2-methyl-7-[6-(methyloxy)-3-pyridinyl]-1-oxo-1,2-dihydro-3-isoquinolinyl}ethanoic acid] the figure was 0.04 µM; with `Cc1c(-c2c([C@H](OC(C)(C)C)C(=O)O)n(C)c(=O)c3cc(OCc4ccc(F)c(F)c4)ccc23)ccc2c1CCCO2` [Example 108, (2S)-2-(tert-butoxy)-2-{7-[(3,4-difluorophenyl)methoxy]-2-methyl-4-(5-methyl-3,4-dihydro-2H-1-benzopyran-6-yl)-1-oxo-1,2-dihydroisoquinolin-3-yl}acetic acid], 0.03 µM; with `COc1ccc2c(-c3ccc4c(c3C)CCCO4)c(C(OC(C)(C)C)C(=O)O)n(C)c(=O)c2c1` (stereo not drawn) [Example 76, 2-(tert-butoxy)-2-[7-methoxy-2-methyl-4-(5-methyl-3,4-dihydro-2H-1-benzopyran-6-yl)-1-oxo-1,2-dihydroisoquinolin-3-yl]acetic acid], 0.12 µM.
In the case of `Cc1c(-c2c(C(OC(C)(C)C)C(=O)O)n(C)c(=O)c3cc(OCc4c(F)cccc4F)ccc23)ccc2c1CCCO2` (stereo not drawn) [Example 98, 2-(tert-butoxy)-2-{7-[(2,6-difluorophenyl)methoxy]-2-methyl-4-(5-methyl-3,4-dihydro-2H-1-benzopyran-6-yl)-1-oxo-1,2-dihydroisoquinolin-3-yl}acetic acid], the IC50 worked out at 0.09 µM.
For `Cc1ccc(-c2c(C(OC(C)(C)C)C(=O)O)n(C)c(=O)c3cc(CNCc4ccccn4)ccc23)cc1C` (stereo not drawn) [Example 183, 2-(tert-butoxy)-2-(4-(3,4-dimethylphenyl)-2-methyl-1-oxo-7-(((pyridin-2-ylmethyl)amino)methyl)-1,2-dihydroisoquinolin-3-yl)acetic acid], the half-inhibitory concentration (IC50) is 3.61 µM.
The value for `Cc1c(-c2c([C@H](OC(C)(C)C)C(=O)O)n(C)c(=O)c3cc(CCc4ccccc4)ccc23)cc(F)c2c1CCCO2` (atropisomer, axis not shown; (M)) [Example 176, (2S)(M)-[(1,1-dimethylethyl)oxy][4-(8-fluoro-5-methyl-3,4-dihydro-2H-chromen-6-yl)-2-methyl-1-oxo-7-(2-phenylethyl)-1,2-dihydro-3-isoquinolinyl]ethanoic acid] was 0.05 µM.
